Laboratory results: paper PMC8907207, “Multiplex quantification of C-terminal alpha-1-antitrypsin peptides provides a novel approach for characterizing systemic inflammation” (Scientific Reports, 2022)
Ends that are not written are not given here.

What was measured:
[1] = Freeze/thaw stability of QC samples; type: in vitro ADME; details: QC in 70 g/L albumin in PBS, two cycles of freezing and thawing, LC-MS/MS
Procedure: (§1) Stability of analytes in processed samples was determined at six independent days for a time span of 20 h in the autosampler. Deviations of standing samples to freshly measured samples were below 19% at the LLOQ and below 9% for other QC levels for each analyte, respectively (Additional file 4). Stability of analytes in biological matrix was determined by consecutive cycles of freezing and thawing as well as extended intervals at room temperature from thawing to processing (approximately one hour).
(§2) Lyophilized authentic peptide standards were dissolved and diluted in a 70 g/L Albumin (from human serum, lyophilized, ≥ 99%, Sigma-Aldrich) in PBS (Sigma-Aldrich, St. Louis, MO, USA) solution. Internal standards C37^IS and C42^IS were dissolved in Milli-Q water (Millipore, Brussels, Belgium) containing 0.1% (v/v) formic acid (≥ 95%, Sigma-Aldrich) whereas C22^IS was only dissolved in ultrapure water. Mixtures of CAAPs used as calibration standards (calibrants) and quality control samples (QCs) were prepared as stock solution to a final concentration of 14 µM, respectively, (expect C40^SNP which was 5 µM) with subsequent serial dilutions. Calibrants and QCs were obtained from separate serial dilutions. Internal standard solution was prepared by adding equal volumes of each IS yielding a final concentration of 0.8 µM, respectively. All samples used for method development and validation were prepared and stored in 0.5 mL Protein LoBind Tubes (Eppendorf AG, Hamburg, Germany) in aliquots at − 80 °C until use.
(§3) Working range of calibrants was defined based on CAAPs detected in samples from healthy donors (set to approximate lower limit of quantification) and in samples from septic patients (set to middle to high calibration range) which were re-analyzed from a previously work[46]. Nine calibrants were used in total ranging from 0.01 µM to 1.5 µM thereby covering more than two orders of magnitude in concentration. Linearity was assessed determining mean linear regression coefficients of each calibration curve from 0.01 to 1.5 µM in eight independent analytical runs. However, respective LLOQs (lower limit of quantification) and ULOQs (upper limit of quantification) were defined individually based on natural occurrence (see above) and results from validation parameter directly affected individual working ranges (carry-over, specificity). Four QC samples were prepared and measured in total (QC1, QC2, QC3, and QC4) to cover the entire range of calibration. However, three QCs for each of the respective analytes were used for method validation. Carry-over was determined measuring pure albumin solutions prepared without internal standards (but equal amount and concentration of water/formic acid solution as regular internal standard solution, “blank albumin sample”) directly after the respective highest calibrants. Peak areas were compared to peak areas from respective LLOQ samples (prepared with regular internal standard solution). Specificity was assessed using single compounds at respective highest calibrant level which were prepared and calculated as described for carry-over. The specificity of analytes towards internal standards was determined using pure albumin solution with internal standard (“zero albumin sample”). Accuracy and precision was determined by back-calculated concentrations from repeated measurements of the same QC samples during one analytical run (within-run repeatability, n = 5) and from freshly prepared samples during five independent analytical runs (between-run, n = 5). Due to the unavailability of analyte-free biological matrix, selectivity of analytes were assessed in pure albumin solution containing internal standards. Matrix effects were determined calculating recovery rates and precision of each compound in human blood samples. Direct comparison between different anticoagulants (EDTA, lithium-heparin) and serum was performed using whole blood from the same human donor. […]

[2] = Benchtop stability of QC samples at room temperature; type: in vitro ADME; details: QC in 70 g/L albumin in PBS, 60 min. at room temperature, LC-MS/MS
Procedure: as §1, §2, §3

[3] = QC2 (0.025 µM; C40^SNP see Table 1)
[4] = QC3 (0.3 µM; C40^SNP 0.1073 µM)

| freeze/ thaw stability, accuracy (mean of n=3) [1, 3] | freeze/ thaw stability, deviation from freshly processed QCs (mean of n=3) [1, 3] | freeze/ thaw stability, accuracy (mean of n=3) [1, 4] | freeze/ thaw stability, deviation from freshly processed QCs (mean of n=3) [1, 4] | benchtop stability, accuracy (mean of n=3) [2, 3] | benchtop stability, deviation from freshly processed QCs (mean of n=3) [2, 3] | benchtop stability, accuracy (mean of n=3) [2, 4] | benchtop stability, deviation from freshly processed QCs (mean of n=3) [2, 4] | Sequence |
| --- | --- | --- | --- | --- | --- | --- | --- | --- |
| 110% | -4% | 115% | -1% | 117% | 1% | 114% | -2% | MFLEAIPMSIPPEVKFNKPFVFLMIEQNTKSPLFMGKVVNPTQK [C44^WT] |
| 104% | 2% | 99% | -2% | 101% | -1% | 98% | -2% | SIPPEVKFNKPFVFLMIDQNTKSPLFMGKVVNPTQK [C36^SNP] |
